Target: T1, Pho1 (free form) (Ipomoea batatas, UniProt P27598)
T1 construct: native, purified from storage roots; 110-kDa band; 220-kDa homodimer
T1 sequence (P27598 44-955): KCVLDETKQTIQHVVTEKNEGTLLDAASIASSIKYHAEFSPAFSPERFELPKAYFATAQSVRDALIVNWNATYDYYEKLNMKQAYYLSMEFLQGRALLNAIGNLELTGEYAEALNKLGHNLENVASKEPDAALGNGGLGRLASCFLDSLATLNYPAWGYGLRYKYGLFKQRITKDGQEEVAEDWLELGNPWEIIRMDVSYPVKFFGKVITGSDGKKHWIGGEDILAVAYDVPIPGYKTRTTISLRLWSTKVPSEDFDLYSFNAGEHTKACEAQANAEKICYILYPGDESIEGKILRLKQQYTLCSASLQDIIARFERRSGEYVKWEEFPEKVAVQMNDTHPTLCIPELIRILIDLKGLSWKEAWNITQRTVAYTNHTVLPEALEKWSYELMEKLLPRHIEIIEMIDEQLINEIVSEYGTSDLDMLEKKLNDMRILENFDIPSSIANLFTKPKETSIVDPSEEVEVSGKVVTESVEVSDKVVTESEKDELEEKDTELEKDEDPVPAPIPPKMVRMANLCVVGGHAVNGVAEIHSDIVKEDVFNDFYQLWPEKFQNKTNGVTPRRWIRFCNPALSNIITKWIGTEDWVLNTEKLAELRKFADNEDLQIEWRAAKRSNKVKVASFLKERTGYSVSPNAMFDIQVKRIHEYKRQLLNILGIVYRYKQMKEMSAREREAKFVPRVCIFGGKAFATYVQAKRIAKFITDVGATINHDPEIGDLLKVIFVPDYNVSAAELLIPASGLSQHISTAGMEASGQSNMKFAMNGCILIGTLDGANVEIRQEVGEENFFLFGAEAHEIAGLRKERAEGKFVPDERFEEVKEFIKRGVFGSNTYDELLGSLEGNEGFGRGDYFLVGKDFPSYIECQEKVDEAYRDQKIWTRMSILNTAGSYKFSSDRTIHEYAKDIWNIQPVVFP
Experiment: Glc-1-P production, coupled phosphoglucomutase / Glc-6-P dehydrogenase (NADPH)
Type: biochemical
Conditions: 0.5 mM substrate, 0.5 mM inorganic phosphate, 50 mM sodium acetate pH 6.0, 37°C, 1 h; phosphorolysis

| SMILES | Glc-1-P production, coupled phosphoglucomutase / Glc-6-P dehydrogenase (NADPH) |
| --- | --- |
| OC[C@H]1O[C@H](O[C@H]2[C@H](O)[C@@H](O)[C@@H](O[C@H]3[C@H](O)[C@@H](O)[C@@H](O[C@H]4[C@H](O)[C@@H](O)[C@@H](O[C@H]5[C@H](O)[C@@H](O)C(O)O[C@@H]5CO)O[C@@H]4CO)O[C@@H]3CO)O[C@@H]2CO)[C@H](O)[C@@H](O)[C@@H]1O (some centres unmarked) [G5, maltopentaose] | displayed high catalytic activity with G5, G6, G7, or dextrin to produce Glc-1-P |
| OC[C@H]1O[C@H](O[C@H]2[C@H](O)[C@@H](O)[C@@H](O[C@H]3[C@H](O)[C@@H](O)[C@@H](O[C@H]4[C@H](O)[C@@H](O)[C@@H](O[C@H]5[C@H](O)[C@@H](O)[C@@H](O[C@H]6[C@H](O)[C@@H](O)C(O)O[C@@H]6CO)O[C@@H]5CO)O[C@@H]4CO)O[C@@H]3CO)O[C@@H]2CO)[C@H](O)[C@@H](O)[C@@H]1O (some centres unmarked) [G6, maltohexaose] | displayed high catalytic activity with G5, G6, G7, or dextrin to produce Glc-1-P |

Source: paper PMC5417683, “Plastidial α-glucan phosphorylase 1 complexes with disproportionating enzyme 1 in Ipomoea batatas storage roots for elevating malto-oligosaccharide metabolism” (PLoS ONE, 2017)
